Where a name gives a salt, the structure may show the parent alone. Read-outs that look alike come from different tables or passages of the source. Square brackets hold non-standard residues; d marks the D form. Peptide text beside a SMILES is read from it. * marks the point of attachment. Sta = CC(C)C[C@H](N)[C@@H](O)CC(=O)O; Isovaleryl = CC(C)CC(=O)*

The record followed here is patent publication US6703536B2, “Disposable absorbent article having a skin care composition containing an enzyme inhibitor” (The Procter & Gamble Company, priority 1998, dated 2004).

What all share (format): biochemical
Assay [1] concerns the target T1, purified leucine aminopeptidase (LAP) (Sus scrofa, UniProt P15145).
T1 construct: purchased Sigma, St. Louis, Mo; L5006
T1 sequence (P15145 1-963): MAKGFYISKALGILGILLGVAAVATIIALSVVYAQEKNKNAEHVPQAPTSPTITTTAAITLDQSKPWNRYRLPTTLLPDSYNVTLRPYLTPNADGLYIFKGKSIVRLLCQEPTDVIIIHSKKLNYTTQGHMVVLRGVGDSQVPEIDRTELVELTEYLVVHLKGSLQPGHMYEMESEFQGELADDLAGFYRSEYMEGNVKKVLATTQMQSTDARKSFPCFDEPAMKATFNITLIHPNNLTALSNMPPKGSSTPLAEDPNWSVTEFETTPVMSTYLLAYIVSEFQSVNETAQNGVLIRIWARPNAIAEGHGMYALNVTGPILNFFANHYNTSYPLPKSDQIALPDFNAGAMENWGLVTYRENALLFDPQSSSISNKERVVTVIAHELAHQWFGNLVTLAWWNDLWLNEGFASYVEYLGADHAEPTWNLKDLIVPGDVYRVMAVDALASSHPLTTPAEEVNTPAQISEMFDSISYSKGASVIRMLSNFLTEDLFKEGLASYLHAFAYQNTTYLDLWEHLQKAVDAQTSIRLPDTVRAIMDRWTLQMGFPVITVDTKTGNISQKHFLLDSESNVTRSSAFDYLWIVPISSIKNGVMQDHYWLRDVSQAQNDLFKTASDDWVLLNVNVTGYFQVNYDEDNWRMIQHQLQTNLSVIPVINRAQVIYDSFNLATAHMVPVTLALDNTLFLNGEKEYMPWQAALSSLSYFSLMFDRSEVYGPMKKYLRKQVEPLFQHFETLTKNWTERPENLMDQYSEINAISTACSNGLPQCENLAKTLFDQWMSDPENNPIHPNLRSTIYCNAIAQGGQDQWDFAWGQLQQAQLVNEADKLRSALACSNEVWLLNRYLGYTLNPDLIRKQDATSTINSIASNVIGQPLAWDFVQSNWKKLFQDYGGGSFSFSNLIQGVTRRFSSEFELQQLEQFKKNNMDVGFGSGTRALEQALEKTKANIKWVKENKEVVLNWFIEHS
The assay is described as follows: Purified Leucine Aminopeptidase Activity (Purified Enzyme Method). On the procedure:
(§1) The IC50 is calculated according to the equation IC50=[I]/[(v/vi)−1], where [I] is the inhibitor concentration tested, v is the rate of substrate cleavage in the absence of the inhibitor and vi is the rate of substrate cleavage in the presence of the inhibitor. As described further below, the IC50 of an enzyme inhibitor according to the invention may be measured by a Purified Enzyme method, by a Specific Fecal Enzyme method or by a General Fecal Enzymes method.
(§2) Standard in vitro assays for enzyme activity, and inhibition of enzyme activity, are well known. The reagents used to conduct these tests are generally commercially available. In general, a simple system comprises an enzyme-specific substrate which, when hydrolyzed by the enzyme, produces a colored product. The activity of the enzyme is measured spectrophotometrically as the degree of development of the colored product (i.e., the rate of color change) over a predetermined time period. […] The following are exemplary methods that may be utilized to determine the inhibitory activity of enzyme inhibitors against A) purified enzymes known to exist in feces, B) specific enzyme activity in the feces itself and C) general enzyme activity in the feces itself. These methods are not intended to be limiting, however, as other methods, other substrates, other inhibitors and the like may be used to test activity against a wide variety of fecal enzymes, as known to one skilled in the art.
(§3) For each of the following exemplary Purified Enzyme Methods, Specific Fecal Enzyme Methods, General Fecal Enzymes Method, Purified Lipase activity assay, Fecal Lipase activity assay, Purified Urease activity assay, Fecal Urease activity assay, Purified Amylase activity assay, and Fecal Amylase activity assay, the IC50 for each inhibitor tested may be calculated according to the following equation: […]
(§4) where [I] is the inhibitor concentration tested, v is the rate of substrate cleavage in the absence of inhibitor and vi is the rate of substrate cleavage in the presence of inhibitor.
(§5) In the methods, v and vi are measured as the change in absorbance (optical density, OD) at a given wavelength/time (e.g., minutes).
To test the efficacy of protease inhibitors against purified leucine aminopeptidase (LAP), 0.05 mL of a putative inhibitor and 0.125 mL of 0.06 U/mL LAP (e.g., Sigma, St. Louis, Mo., catalogue no. L5006) in LAP buffer (50 mM sodium phosphate, pH 7.2) are added to a microcuvette. The cuvette is incubated at 25° C. for 10 minutes. […] The same procedure is repeated without the putative inhibitor. […] The rates, vi and v, and the inhibitor concentration [I] are used to calculate IC50 according to the equation expressed above.

Assay [2] concerns the target T2, purified trypsin (Homo sapiens, UniProt P07477).
T2 construct: purchased Sigma, St. Louis, Mo; T6424
The experiment in a line: Purified Trypsin Activity (Purified Enzyme Method). On the procedure: as §1, §2, §3, §4, §5
(§6) The cuvette is incubated at 25° C. for 10 minutes. […] The same procedure is repeated without the putative inhibitor. […] The rates, vi and v, and the inhibitor concentration [I] are used to calculate IC50 according to the equation expressed above.

The target of assay [3] is T3, purified chymotrypsin (Homo sapiens, UniProt P17538).
T3 construct: purchased Sigma, St. Louis, Mo; C8946
T3 sequence (P17538 19-263): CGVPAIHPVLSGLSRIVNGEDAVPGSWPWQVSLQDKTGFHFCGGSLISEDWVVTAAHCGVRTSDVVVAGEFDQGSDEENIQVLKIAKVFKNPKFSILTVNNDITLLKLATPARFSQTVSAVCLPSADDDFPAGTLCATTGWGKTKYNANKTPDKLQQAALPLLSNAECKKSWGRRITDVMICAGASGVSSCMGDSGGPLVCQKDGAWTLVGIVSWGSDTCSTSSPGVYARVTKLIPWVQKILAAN
The experiment in a line: Purified Chymotrypsin Activity (Purified Enzyme Method). On the procedure: as §1, §2, §3, §4, §5, §6

The mark [4] stands for this setting: purified leucine aminopeptidase, L-Leucine-p-nitroaniline, pH 7.2, 25° C., read-out: IC50 Purified Enzyme Methods LAP.
[5] abbreviates: purified trypsin, Cbz-arginine-p-nitroanilide, pH 8.2, 25° C., read-out: IC50 Purified Enzyme Methods Trypsin.
Where [6] appears, read: purified chymotrypsin, N-Succ-Ala-Ala-Pro-Phe-p-nitroanilide, pH 7.6, 25° C., read-out: IC50 Purified Enzyme Methods Chymotryp.

The IC50 is the point on the concentration scale where inhibition reaches its midpoint. Consider `CC(C)C[C@H](NC(=O)[C@@H](NC(=O)N[C@@H](Cc1ccccc1)C(=O)O)[C@@H]1CCN=C(N)N1)C(=O)N[C@H](C=O)Cc1ccccc1` [Chymostatin], for which the IC50 in assay [1] (setting [4]) was more than 500 µM; in assay [2] (setting [5]) it was more than 500 µM; in assay [3] it was less than 0.12 µM.

As for `CC1(C)[C@@H](O[C@H]2O[C@H](C(=O)O)[C@@H](O)[C@H](O)[C@H]2O[C@@H]2O[C@H](C(=O)O)[C@@H](O)[C@H](O)[C@H]2O)CC[C@]2(C)[C@H]3C(=O)C=C4[C@@H]5C[C@@](C)(C(=O)O)CC[C@]5(C)CC[C@@]4(C)[C@]3(C)CC[C@@H]12` [Glycyrrhizic Acid], the IC50 in assay [1] (setting [4]) was more than 500 µM; in assay [2] (setting [5]), 45 µM; in assay [3] (setting [6]) it was more than 500 µM.

For `N=C(N)c1ccc(OCCCCCCOc2ccc(C(=N)N)cc2)cc1` [Hexamidine diisethionate], the results for the concentration for half-maximal inhibition (IC50) in assay [1] (setting [4]), in assay [2] (setting [5]) and in assay [3] (setting [6]) were 256 µM, 2.5 µM and more than 1000 µM, respectively.

With `CC(=O)N[C@@H](CC(C)C)C(=O)N[C@@H](CC(C)C)C(=O)N[C@H](C=O)CCCNC(=N)N` [Leupeptin], the IC50 was more than 500 µM in assay [1] (setting [4]), 0.14 µM in assay [2] (setting [5]) and more than 500 µM in assay [3] (setting [6]).

`CC(C)CC(=O)N[C@H](C(=O)N[C@H](C(=O)N[C@@H](CC(C)C)[C@@H](O)CC(=O)N[C@@H](C)C(=O)N[C@@H](CC(C)C)[C@@H](O)CC(=O)O)C(C)C)C(C)C` [Pepstatin A] (Isovaleryl-VV[Sta]A[Sta]-OH): the IC50 in assay [1] (setting [4]) is more than 500 µM; in assay [2] (setting [5]) it was 324 µM; in assay [3] (setting [6]) it was 4.9 µM.

For the molecule `Cc1ccc(S(=O)(=O)N[C@@H](CCCCN)C(=O)CCl)cc1` [TLCK, L-1-chloro-3-[4-tosylamido]-7-amino-2-heptanone-HCl], the IC50 in assay [1] is more than 500 µM; in assay [2], 78.3 µM; in assay [3], more than 500 µM.

`N=C(N)c1ccc(N)cc1` [p-Amino-benzamidine]: the IC50 in assay [1] (setting [4]) and in assay [3] (setting [6]) was more than 500 µM each time.

On to Aprotinin, for which the IC50 in assay [1] (setting [4]) is more than 20 µM; in assay [3] (setting [6]), 1 µM.

B1: Soybean trypsin inhibitor: plant-derived trypsin inhibitor (protein, UniProt P01070 25-205, looked up)
Trypsin inhibitor A: DFVLDNEGNPLENGGTYYILSDITAFGGIRAAPTGNERCPLTVVQSRNELDKGIGTIISSPYRIRFIAEGHPLSLKFDSFAVIMLCVGIPTEWSVVEDLPEGPAVKIGENKDAMDGWFRLERVSDDEFNNYKLVFCPQQAEDDKCGDIGISIDHDDGTRRLVVSKNKPLVVQFQKLDKESL
For B1, the IC50 is more than 10 µM in assay [1] (setting [4]), 0.25 µM in assay [2] (setting [5]) and 0.026 µM in assay [3] (setting [6]).
